# Where a SMILES comes first, the peptide text is derived from it.
# Target: T1, EB1_191–260 (EB1c) (Homo sapiens, UniProt Q15691)
# T1 construct: Human EB1 (Uniprot code Q15691), residues 191–260, was cloned into pOPINS vector; SUMO fusion protein (cleaved yes); 6xHis (cleaved yes); made in house; host or cells: E. coli BL21 Star (DE3)
# T1 sequence (Q15691 191-260): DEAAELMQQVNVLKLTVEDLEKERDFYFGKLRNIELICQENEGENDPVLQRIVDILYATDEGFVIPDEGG
# Test: 1H-15N HSQC NMR ligand screening / titration (chemical shift perturbations, KD by curve fitting)
# Type: binding
# Settings: NMR titration curves (Tyr247) fitted to two-state exchange model; 50 μM protein; read-out: estimated KD
# From the text: The ^1H and ^15N resonances were fully assigned using complementary pairs of triple resonance NMR spectra - CBCA(CO)NH/HNCACB for Cα and Cβ and HNCO/HN(CA)CO for CO connectivities.
# Ligand-induced chemical shift perturbations (CSPs) in NH resonances on addition of the ligand were used as an indication of ligand binding and location of the binding site.
# NMR spectra were collected on Bruker Avance III 600 and 800 MHz spectrometers equipped with CryoProbes. Spectra were processed with TopSpin (Bruker) and analysed using CCPNmr Analysis[35]. ^1H-^15N HSQC ligand screening ^1H-^15N- Heteronuclear Single Quantum Coherence (HSQC) experiments for ligand binding screening were performed using 0.05 mM ^15N-labelled EB1 in 20 mM phosphate pH 6.5, 50 mM NaCl, 0.5 mM TCEP, 0.02% (w/v) NaN3 in the absence or presence of ligands. To eliminate any small shifts induced by the small amounts of DMSO used to dissolve the compounds, DMSO concentration was kept constant in all experiments.
# The dotted lines connect the values calculated for the best-fit curves at the titration points. Ligand concentration corresponds to the excess of ligand (e.g. 10-fold excess, 20-fold excess) to the protein concentration (50 μM). Binding constants were evaluated by fitting the experimental data to the […]
# ∆δ = ∆δ {([P] + [L] + K ) − [([P] + [L] + K )2 − 4[P] [L] ]1⁄2}⁄2[P] […]
row,Kd,SMILES
1,10 ± 3 mM,C[C@@H](Sc1nnnn1C1CCCC1)C(=O)NCc1ccco1 [1a]
2,14 ± 1.9 mM,"CC[C@H](C)[C@H](NC(=O)[C@H](CCCCN)NC(=O)[C@@H](N)CO)C(=O)N1CCC[C@H]1C(=O)O [SKIP, reference compound] (H-SKIP-OH)"
3,6 ± 1 mM,Cc1c(NC(=O)[C@@H](C)Sc2nnnn2C2CCCC2)c(=O)n(-c2ccccc2)n1C [1d]

# Source: article PMC5686072, “Targeting SxIP-EB1 interaction: An integrated approach to the discovery of small molecule modulators of dynamic binding sites” (Scientific Reports, 2017)
